# Results from ChEMBL document CHEMBL1154382, “Preliminary SAR analysis of novel antiproliferative N(6),5'-bis-ureidoadenosine derivatives” (2009).
# Experiments:
# Format in all cases: functional
# Details in all cases: values are per cent of control
# [1] = tested on: NCI-H460; test: Antiproliferative activity against human NCI-H460 cells at 10 uM assessed as cell growth inhibition relative to control
# [2] = tested on: HOP-92; test: Antiproliferative activity against human HOP92 cells at 10 uM assessed as cell growth inhibition relative to control
# [3] = tested on: SK-MEL-2; test: Antiproliferative activity against human SK-MEL-2 cells at 10 uM assessed as cell growth inhibition relative to control
# [4] = tested on: SN12C; test: Antiproliferative activity against human SN12C cells at 10 uM assessed as cell growth inhibition relative to control
# [5] = tested on: COLO 205; test: Antiproliferative activity against human COLO205 cells at 10 uM assessed as cell growth inhibition relative to control
# [6] = tested on: PC-3; test: Antiproliferative activity against human PC3 cells at 10 uM assessed as cell growth inhibition relative to control
# [7] = tested on: OVCAR-3; test: Antiproliferative activity against human OVCAR-3 cells at 10 uM assessed as cell growth inhibition relative to control
# [8] = tested on: UO-31; test: Antiproliferative activity against human UO31 cells at 10 uM assessed as cell growth inhibition relative to control
# [9] = tested on: SK-MEL-5; test: Antiproliferative activity against human SK-MEL-5 cells at 10 uM assessed as cell growth inhibition relative to control
# [10] = tested on: HCC 2998; test: Antiproliferative activity against human HCC2998 cells at 10 uM assessed as cell growth inhibition relative to control
# [11] = tested on: DU-145; test: Antiproliferative activity against human DU145 cells at 10 uM assessed as cell growth inhibition relative to control
# [12] = tested on: LOX IMVI; test: Antiproliferative activity against human LOXIMVI cells at 10 uM assessed as cell growth inhibition relative to control
# [13] = tested on: IGROV-1; test: Antiproliferative activity against human IGROV1 cells at 10 uM assessed as cell growth inhibition relative to control
# [14] = tested on: Malme-3M; test: Antiproliferative activity against human MALME-3M cells at 10 uM assessed as cell growth inhibition relative to control
# [15] = tested on: U-251; test: Antiproliferative activity against human U251 cells at 10 uM assessed as cell growth inhibition relative to control
# [16] = tested on: OVCAR-5; test: Antiproliferative activity against human OVCAR5 cells at 10 uM assessed as cell growth inhibition relative to control
# [17] = tested on: CAKI-1; test: Antiproliferative activity against human Caki1 cells at 10 uM assessed as cell growth inhibition relative to control
# [18] = tested on: A498; test: Antiproliferative activity against human A498 cells at 10 uM assessed as cell growth inhibition relative to control
# [19] = tested on: MCF7; test: Antiproliferative activity against human MCF7 cells at 10 uM assessed as cell growth inhibition relative to control
# [20] = tested on: OVCAR-8; test: Antiproliferative activity against human OVCAR8 cells at 10 uM assessed as cell growth inhibition relative to control
# [21] = tested on: TK-10; test: Antiproliferative activity against human TK10 cells at 10 uM assessed as cell growth inhibition relative to control
# [22] = tested on: HOP-62; test: Antiproliferative activity against human HOP62 cells at 10 uM assessed as cell growth inhibition relative to control
# [23] = tested on: SK-OV-3; test: Antiproliferative activity against human SKOV3 cells at 10 uM assessed as cell growth inhibition relative to control
# [24] = tested on: NCI-H322M; test: Antiproliferative activity against human NCI-H322M cells at 10 uM assessed as cell growth inhibition relative to control
# [25] = tested on: SK-MEL-28; test: Antiproliferative activity against human SK-MEL-28 cells at 10 uM assessed as cell growth inhibition relative to control
# [26] = tested on: NCI-H23; test: Antiproliferative activity against human NCI-H23 cells at 10 uM assessed as cell growth inhibition relative to control
# [27] = tested on: K562; test: Antiproliferative activity against human K562 cells at 10 uM assessed as cell growth inhibition relative to control
# [28] = tested on: NCI-H522; test: Antiproliferative activity against human NCI-H522 cells at 10 uM assessed as cell growth inhibition relative to control
# [29] = tested on: KM12; test: Antiproliferative activity against human KM12 cells at 10 uM assessed as cell growth inhibition relative to control
# [30] = tested on: SF-539; test: Antiproliferative activity against human SF539 cells at 10 uM assessed as cell growth inhibition relative to control
# [31] = tested on: NCI-H226; test: Antiproliferative activity against human NCI-H226 cells at 10 uM assessed as cell growth inhibition relative to control
# [32] = tested on: SW-620; test: Antiproliferative activity against human SW620 cells at 10 uM assessed as cell growth inhibition relative to control
# [33] = tested on: SNB-19; test: Antiproliferative activity against human SNB19 cells at 10 uM assessed as cell growth inhibition relative to control
# [34] = tested on: UACC-257; test: Antiproliferative activity against human UACC257 cells at 10 uM assessed as cell growth inhibition relative to control
# [35] = Antiproliferative activity against human […] cells at 10 uM assessed as cell growth inhibition relative to control
# [36] = tested on: OVCAR-4; test: Antiproliferative activity against human OVCAR4 cells at 10 uM assessed as cell growth inhibition relative to control
# [37] = tested on: CCRF-CEM; test: Antiproliferative activity against human CCRF-CEM cells at 10 uM assessed as cell growth inhibition relative to control
# [38] = tested on: SF-268; test: Antiproliferative activity against human SF268 cells at 10 uM assessed as cell growth inhibition relative to control
# [39] = tested on: HCT-116; test: Antiproliferative activity against human HCT116 cells at 10 uM assessed as cell growth inhibition relative to control
# [40] = tested on: A549; test: Antiproliferative activity against human A549 cells at 10 uM assessed as cell growth inhibition relative to control
# [41] = tested on: EKVX; test: Antiproliferative activity against human EKVX cells at 10 uM assessed as cell growth inhibition relative to control
# [42] = tested on: UACC-62; test: Antiproliferative activity against human UACC62 cells at 10 uM assessed as cell growth inhibition relative to control
# [43] = tested on: MDA-MB-468; test: Antiproliferative activity against human MDA-MB-468 cells at 10 uM assessed as cell growth inhibition relative to control
# [44] = tested on: M14; test: Antiproliferative activity against human M14 cells at 10 uM assessed as cell growth inhibition relative to control
# [45] = tested on: T47D; test: Antiproliferative activity against human T47D cells at 10 uM assessed as cell growth inhibition relative to control
# [46] = tested on: SF-295; test: Antiproliferative activity against human SF295 cells at 10 uM assessed as cell growth inhibition relative to control
# [47] = tested on: HL-60(TB); test: Antiproliferative activity against human HL-60(TB) cells at 10 uM assessed as cell growth inhibition relative to control
# [48] = tested on: RXF 393; test: Antiproliferative activity against human RXF393 cells at 10 uM assessed as cell growth inhibition relative to control
# [49] = tested on: SNB-75; test: Antiproliferative activity against human SNB75 cells at 10 uM assessed as cell growth inhibition relative to control
# [50] = tested on: HT-29; test: Antiproliferative activity against human HT-29 cells at 10 uM assessed as cell growth inhibition relative to control
# [51] = tested on: BT-549; test: Antiproliferative activity against human BT549 cells at 10 uM assessed as cell growth inhibition relative to control
# [52] = Antiproliferative activity against human Hs 578T cells at 10 uM assessed as cell growth inhibition relative to control
# [53] = tested on: 786-0; test: Antiproliferative activity against human 786-0 cells at 10 uM assessed as cell growth inhibition relative to control
# [54] = tested on: MOLT-4; test: Antiproliferative activity against human MOLT4 cells at 10 uM assessed as cell growth inhibition relative to control
# [55] = tested on: ACHN; test: Antiproliferative activity against human ACHN cells at 10 uM assessed as cell growth inhibition relative to control
# [56] = tested on: MDA-MB-231; test: Antiproliferative activity against human MDA-MB-231 cells at 10 uM assessed as cell growth inhibition relative to control
# [57] = tested on: HCT-15; test: Antiproliferative activity against human HCT15 cells at 10 uM assessed as cell growth inhibition relative to control
structure (smiles),measurement,setting,value
CCOC(=O)C[C@H]1[C@@H](O[Si](C)(C)C(C)(C)C)[C@H](n2cnc3c(N)ncnc32)O[C@@H]1COC(=O)NC,"growth, % of control at 10 µM",[1],106%
same,"growth, % of control at 10 µM",[2],95%
same,"growth, % of control at 10 µM",[3],111%
same,"growth, % of control at 10 µM",[4],96%
same,"growth, % of control at 10 µM",[5],104%
same,"growth, % of control at 10 µM",[6],84%
same,"growth, % of control at 10 µM",[7],98%
same,"growth, % of control at 10 µM",[8],95%
same,"growth, % of control at 10 µM",[9],68%
same,"growth, % of control at 10 µM",[10],55%
same,"growth, % of control at 10 µM",[11],100%
same,"growth, % of control at 10 µM",[12],88%
same,"growth, % of control at 10 µM",[13],118%
same,"growth, % of control at 10 µM",[14],96%
same,"growth, % of control at 10 µM",[15],86%
same,"growth, % of control at 10 µM",[16],115%
same,"growth, % of control at 10 µM",[17],79%
same,"growth, % of control at 10 µM",[18],98%
same,"growth, % of control at 10 µM",[19],98%
same,"growth, % of control at 10 µM",[20],98%
same,"growth, % of control at 10 µM",[21],110%
same,"growth, % of control at 10 µM",[22],74%
same,"growth, % of control at 10 µM",[23],94%
same,"growth, % of control at 10 µM",[24],99%
same,"growth, % of control at 10 µM",[25],106%
same,"growth, % of control at 10 µM",[26],105%
same,"growth, % of control at 10 µM",[27],86%
same,"growth, % of control at 10 µM",[28],75%
same,"growth, % of control at 10 µM",[29],102%
same,"growth, % of control at 10 µM",[30],89%
same,"growth, % of control at 10 µM",[31],79%
same,"growth, % of control at 10 µM",[32],104%
same,"growth, % of control at 10 µM",[33],92%
same,"growth, % of control at 10 µM",[34],94%
same,"growth, % of control at 10 µM",[35],79%
same,"growth, % of control at 10 µM",[36],78%
same,"growth, % of control at 10 µM",[37],98%
same,"growth, % of control at 10 µM",[38],97%
same,"growth, % of control at 10 µM",[39],81%
same,"growth, % of control at 10 µM",[40],92%
same,"growth, % of control at 10 µM",[41],83%
same,"growth, % of control at 10 µM",[42],77%
same,"growth, % of control at 10 µM",[43],77%
same,"growth, % of control at 10 µM",[44],100%
same,"growth, % of control at 10 µM",[45],84%
same,"growth, % of control at 10 µM",[46],92%
same,"growth, % of control at 10 µM",[47],80%
same,"growth, % of control at 10 µM",[48],78%
same,"growth, % of control at 10 µM",[49],83%
same,"growth, % of control at 10 µM",[50],100%
same,"growth, % of control at 10 µM",[51],74%
same,"growth, % of control at 10 µM",[52],93%
same,"growth, % of control at 10 µM",[53],87%
same,"growth, % of control at 10 µM",[54],55%
same,"growth, % of control at 10 µM",[55],89%
same,"growth, % of control at 10 µM",[56],85%
same,"growth, % of control at 10 µM",[57],87%
